Data taken from US20130324576A1, “THERAPEUTIC COMPOUNDS” (Takeda Pharmaceutical Company Limited, priority 2012, published 2013).

Molecular target: T1, human PKR1 receptors (Homo sapiens, UniProt Q8TCW9)
T1 construct: expressed in transfected cells; host or cells: RBL2H3 cells (rat basophilic leukaemia line) expressing human PKR1
Test: PKR1 antagonist assay: block of PK1-mediated intracellular calcium release (FLIPR Tetra, Calcium 5 dye)
Format: cell-based
Conditions: RBL2H3 cells expressing human PKR1; 10 min pre-incubation, stimulation with PK1 at EC80; calcium fluorescence
Protocol: Prokineticin receptor 1 (PKR1) antagonists may be functionally assessed by measurement of change in intracellular calcium levels induced by Gq mediated increase in inositol triphosphate (IP3) levels. The ability of a compound to block the intracellular release of calcium mediated by PK1 in RBL2H3 cells expressing human PKR1 receptors is determined as a measure of the compound's antagonist activity in vitro.
Approximately 10,000 cells per assay well are seeded in normal culture medium in a 384 well plate (Corning). Twenty-four hours after seeding, the cells are loaded with a calcium sensitive fluorescent dye by replacing the culture medium with assay buffer (1× Hanks buffered saline, 25 mM HEPES, 0.1% w/v fatty acid free BSA (bovine serum albumin), pH 7.4) containing 1 mM probenecid and 1× Calcium 5 Reagent (Molecular Devices). Cells are incubated at 37° C. for 1 hour to allow for dye uptake.
To test for antagonist activity, test compounds at a final concentration range between 0.32 nM-10 μM (diluted in assay buffer) are added to the assay wells and allowed to incubate for 10 minutes prior to stimulation with PK1. After incubation with test compounds the assay plate is placed in a FLIPR Tetra (Molecular Devices) and PK1 (diluted in assay buffer) is added at the determined EC80 concentration (final). Ligand-dependent changes in intracellular calcium levels are determined by measuring changes in fluorescence of the dye at […] following excitation at 485 nm.

T1 sequence (Q8TCW9 whole entry): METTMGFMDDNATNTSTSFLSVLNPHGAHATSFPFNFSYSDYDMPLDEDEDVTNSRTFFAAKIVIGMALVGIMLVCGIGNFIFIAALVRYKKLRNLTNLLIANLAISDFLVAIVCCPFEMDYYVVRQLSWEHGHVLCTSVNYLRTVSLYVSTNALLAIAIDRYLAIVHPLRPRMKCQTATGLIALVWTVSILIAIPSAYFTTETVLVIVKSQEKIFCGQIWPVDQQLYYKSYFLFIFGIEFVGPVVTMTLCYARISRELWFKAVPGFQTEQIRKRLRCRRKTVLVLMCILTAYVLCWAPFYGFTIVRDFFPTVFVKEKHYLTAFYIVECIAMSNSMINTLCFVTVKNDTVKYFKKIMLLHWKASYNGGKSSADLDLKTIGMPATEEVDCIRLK

Compound | IC50
Cc1cnn(C)c1S(=O)(=O)N1CCC(Oc2ccc(Cl)cc2Cl)CC1 [Example 36, 4-(2,4-Dichlorophenoxy)-1-(1,4-dimethyl-1H-pyrazole-5-sulfonyl)piperidine] | 1.1 µM
Cc1cnn(C)c1S(=O)(=O)N1CCC(Oc2ccc(Cl)cc2)CC1 [Example 37, 4-(4-Chlorophenoxy)-1-(1,4-dimethyl-1H-pyrazole-5-sulfonyl)piperidine] | 7.4 µM
Cc1cccc(C)c1OC1CCN(S(=O)(=O)c2c(C)n[nH]c2C)CC1 [Example 38, 1-(3,5-Dimethyl-1H-pyrazole-4-sulfonyl)-4-(2,6-dimethylphenoxy)piperidine] | 3.2 µM
Cc1nn(C)c(C)c1S(=O)(=O)N1CCC(Oc2ccc(Cl)cc2C(F)(F)F)CC1 [Example 39, 4-[4-Chloro-2-(trifluoromethyl)phenoxy]-1-(trimethyl-1H-pyrazole-4-sulfonyl)piperidine] | 0.21 µM
Cc1n[nH]c(C)c1S(=O)(=O)N1CCC(Oc2ccc(Cl)cc2C(F)(F)F)CC1 [Example 40, 4-[4-Chloro-2-(trifluoromethyl)phenoxy]-1-(3,5-dimethyl-1H-pyrazole-4-sulfonyl)piperidine] | 0.21 µM
COc1ccc(OC2CCN(S(=O)(=O)c3c(C)n[nH]c3C)CC2)cc1F [Example 41, 1-(3,5-Dimethyl-1H-pyrazole-4-sulfonyl)-4-(3-fluoro-4-methoxyphenoxy)piperidine] | 5.9 µM
COc1c(F)cc(OC2CCN(S(=O)(=O)c3c(C)n[nH]c3C)CC2)cc1F [Example 42, 4-(3,5-Difluoro-4-methoxyphenoxy)-1-(3,5-dimethyl-1H-pyrazole-4-sulfonyl)piperidine] | 5.9 µM
COc1ccc(OC2CCN(S(=O)(=O)c3c(C)nn(C)c3C)CC2)cc1F [Example 43, 4-(3-Fluoro-4-methoxyphenoxy)-1-(trimethyl-1H-pyrazole-4-sulfonyl)piperidine] | 6.3 µM
COc1c(F)cc(OC2CCN(S(=O)(=O)c3c(C)nn(C)c3C)CC2)cc1F [Example 44, 4-(3,5-Difluoro-4-methoxyphenoxy)-1-(trimethyl-1H-pyrazole-4-sulfonyl)piperidine] | 5.1 µM
Cc1nn(C)c(C)c1S(=O)(=O)N1CCC(Oc2c(F)cc(Cl)cc2F)CC1 [Example 46, 4-(4-Chloro-2,6-difluorophenoxy)-1-(trimethyl-1H-pyrazole-4-sulfonyl)piperidine] | 1 µM
Cc1n[nH]c(C)c1S(=O)(=O)N1CCC(Oc2ccc(Cl)c(F)c2)CC1 [Example 47, 4-(4-Chloro-3-fluorophenoxy)-1-(3,5-dimethyl-1H-pyrazole-4-sulfonyl)piperidine] | 1.9 µM
Cc1nn(C)c(C)c1S(=O)(=O)N1CCC(N(C)c2ccc(Cl)c(Cl)c2)CC1 [Example 54] | 5.2 µM
Cc1n[nH]c(C)c1S(=O)(=O)N1CCC(C#N)(Cc2ccc(Cl)cc2Cl)CC1 [Example 65, 4-(2,4-Dichlorobenzyl)-1-((3,5-dimethyl-1H-pyrazol-4-yl)sulfonyl)piperidine-4-carbonitrile] | 0.94 µM
CCc1n[nH]c(CC)c1S(=O)(=O)N1CCC(Cc2ccc(Cl)cc2)CC1 [Example 66, 4-(4-Chlorobenzyl)-1-((3,5-diethyl-1H-pyrazol-4-yl)sulfonyl)piperidine] | 1.01 µM
Cc1n[nH]c(C)c1S(=O)(=O)N1CCC(Cc2ccc(Cl)c(F)c2)CC1 [Example 71, 4-(4-Chloro-3-fluorobenzyl)-1-((3,5-dimethyl-1H-pyrazol-4-yl)sulfonyl)piperidine] | 0.78 µM
COc1cc(Cl)ccc1OC1CCN(S(=O)(=O)c2c(C)n[nH]c2C)CC1 [Example 73, 4-(4-Chloro-2-methoxyphenoxy)-1-((3,5-dimethyl-1H-pyrazol-4-yl)sulfonyl)piperidine] | 0.2 µM

The next lines start with the values.

IC50 | Compound
1.4 µM | Cc1nn(C)c(C)c1S(=O)(=O)N1CCC(Oc2ccc(Cl)c(F)c2)CC1 [Example 45, 4-(4-Chloro-3-fluorophenoxy)-1-(trimethyl-1H-pyrazole-4-sulfonyl)piperidine]
3.8 µM | Cc1nn(C)c(C)c1S(=O)(=O)N1CCC(Oc2ccc(Cl)cn2)CC1 [Example 48, 5-Chloro-2-((1-((1,3,5-trimethyl-1H-pyrazol-4-yl)sulfonyl)piperidin-4-yl)oxy)pyridine]
1 µM | Cc1nn(C)c(C)c1S(=O)(=O)N1CCC(C(=O)c2ccc(Cl)cc2)CC1 [Example 49, (4-Chlorophenyl)(1-((1,3,5-trimethyl-1H-pyrazol-4-yl)sulfonyl)piperidin-4-yl)methanone]
2.1 µM | Cc1nn(C)c(C)c1S(=O)(=O)N1CCC(C(=O)c2ccc(Cl)c(Cl)c2)CC1 [Example 50, (3,4-Dichlorophenyl)(1-((1,3,5-trimethyl-1H-pyrazol-4-yl)sulfonyl)piperidin-4-yl)methanone]
1.5 µM | Cc1nn(C)c(C)c1S(=O)(=O)N1CCC(Nc2ccc(Cl)cc2)CC1 [Example 51, N-(4-Chlorophenyl)-1-((1,3,5-trimethyl-1H-pyrazol-4-yl)sulfonyl)piperidin-4-amine]
2.7 µM | Cc1nn(C)c(C)c1S(=O)(=O)N1CCC(Nc2ccc(Cl)c(Cl)c2)CC1 [Example 52, N-(3,4-Dichlorophenyl)-1-((1,3,5-trimethyl-1H-pyrazol-4-yl)sulfonyl)piperidin-4-amine]
0.52 µM | Cc1nn(C)c(C)c1S(=O)(=O)N1CCC(Cc2ccc(Cl)cc2)CC1 [Example 55, 4-(4-Chlorobenzyl)-1-((1,3,5-trimethyl-1H-pyrazol-4-yl)sulfonyl)piperidine]
0.95 µM | Cc1nn(C)c(C)c1S(=O)(=O)N1CCC(Cc2ccc(Cl)c(Cl)c2)CC1 [Example 56, 4-(3,4-Dichlorobenzyl)-1-((1,3,5-trimethyl-1H-pyrazol-4-yl)sulfonyl)piperidine]
1.6 µM | Cc1nn(C)c(C)c1S(=O)(=O)N1CCC(O)(Cc2ccc(Cl)cc2)CC1 [Example 57, 4-(4-Chlorobenzyl)-1-((1,3,5-trimethyl-1H-pyrazol-4-yl)sulfonyl)piperidin-4-ol]
2.4 µM | COC1(Cc2ccc(Cl)cc2)CCN(S(=O)(=O)c2c(C)nn(C)c2C)CC1 [Example 58, 4-(4-Chlorobenzyl)-4-methoxy-1-((1,3,5-trimethyl-1H-pyrazol-4-yl)sulfonyl)piperidine]
2.4 µM | Cc1nn(C)c(C)c1S(=O)(=O)N1CCC(O)(Cc2ccc(Cl)cc2Cl)CC1 [Example 59, 4-(2,4-Dichlorobenzyl)-1-((1,3,5-trimethyl-1H-pyrazol-4-yl)sulfonyl)piperidin-4-ol]
0.9 µM | COCC1(Cc2ccc(Cl)cc2)CCN(S(=O)(=O)c2c(C)nn(C)c2C)CC1 [Example 60, 4-(4-Chlorobenzyl)-4-(methoxymethyl)-1-((1,3,5-trimethyl-1H-pyrazol-4-yl)sulfonyl)piperidine]
1.08 µM | CCOC(=O)C1(Cc2ccc(Cl)cc2)CCN(S(=O)(=O)c2c(C)nn(C)c2C)CC1 [Example 61, Ethyl 4-(4-chlorobenzyl)-1-((1,3,5-trimethyl-1H-pyrazol-4-yl)sulfonyl)piperidine-4-carboxylate]
0.68 µM | CCOC(=O)C1(Cc2ccc(Br)cc2)CCN(S(=O)(=O)c2c(C)n[nH]c2C)CC1 [Example 62, Ethyl 4-(4-bromobenzyl)-1-((3,5-dimethyl-1H-pyrazol-4-yl)sulfonyl)piperidine-4-carboxylate]
0.64 µM | CCOC(=O)C1(Cc2ccc(Br)cc2)CCN(S(=O)(=O)c2c(C)nn(C)c2C)CC1 [Example 63, Ethyl 4-(4-bromobenzyl)-1-((1,3,5-trimethyl-1H-pyrazol-4-yl)sulfonyl)piperidine-4-carboxylate]
0.89 µM | Cc1n[nH]c(C)c1S(=O)(=O)N1CCC(C#N)(Cc2ccc(Cl)cc2)CC1 [Example 64, 4-(4-Chlorobenzyl)-1-((3,5-dimethyl-1H-pyrazol-4-yl)sulfonyl)piperidine-4-carbonitrile]
0.52 µM | Cc1n[nH]c(C)c1S(=O)(=O)N1CCC(Cc2ccc(Cl)cc2)CC1 [Example 67, 4-(4-Chlorobenzyl)-1-((3,5-dimethyl-1H-pyrazol-4-yl)sulfonyl)piperidine]
2.02 µM | Cc1nn(C)c(Cl)c1S(=O)(=O)N1CCC(Cc2ccc(Cl)cc2)CC1 [Example 68, 1-((5-Chloro-1,3-dimethyl-1H-pyrazol-4-yl)sulfonyl)-4-(4chlorobenzyl)piperidine]
6.47 µM | Cc1nn(C)c(C)c1S(=O)(=O)N1CCC(O)(Cc2ccc(Cl)c(Cl)c2)CC1 [Example 69, 4-(3,4-Dichlorobenzyl)-1-((1,3,5-trimethyl-1H-pyrazol-4-yl)sulfonyl)piperidin-4-ol]
8.62 µM | Cc1n[nH]c(C)c1S(=O)(=O)N1CCC(O)(Cc2ccc(Cl)c(Cl)c2)CC1 [Example 70, 4-(3,4-Dichlorobenzyl)-1-((3,5-dimethyl-1H-pyrazol-4-yl)sulfonyl)piperidin-4-ol]
0.44 µM | Cc1nn(C)c(C)c1S(=O)(=O)N1CCC(Cc2ccc(Cl)c(F)c2)CC1 [Example 72, 4-(4-Chloro-3-fluorobenzyl)-1-((1,3,5-trimethyl-1H-pyrazol-4-yl)sulfonyl)piperidine]
0.17 µM | COc1cc(Cl)ccc1OC1CCN(S(=O)(=O)c2c(C)nn(C)c2C)CC1 [Example 74, 4-(4-Chloro-2-methoxyphenoxy)-1-((1,3,5-trimethyl-1H-pyrazol-4-yl)sulfonyl)piperidine]
